Measurements taken from PMC3346935 (2012).
Residues, ends and D or L forms follow the SMILES beside them.

Tests used:
[1] = tested on: RNA 7 (RNA, aptamer) GGCAAGUACUCUGACGCAGAUGGAAGUACCUUUGAACUGGGGGAGAAUGGUUAUGAGAAUCUAGCGAAGCCGGAGGUGCGUAGAGGAGGACAGCG; test: isocratic affinity elution from His–Phe–Sepharose; details: 600 mM NaCl, 5 mM MgCl2, 5 mM CaCl2; 50 mM HEPES pH 7.0
[2] = tested on: RNA 40 (RNA, aptamer) GGCAAGUACUCUGACGCAAGGGUAGAUAUGCGUAUAUGCAGAUCCCAAAUAAAGGACGAAUUUAGUACGGGGGGUGUGCGUAGAGGAGGACAGCG; test: isocratic affinity elution from His–Phe–Sepharose; details: 600 mM NaCl, 5 mM MgCl2, 5 mM CaCl2; 50 mM HEPES pH 7.0
[3] = tested on: RNA 25 (RNA, aptamer) GGCAAGUACUCUGACGCCGAAGCCAGCCGGCGAUUGGGAACGACGGAAUUCCUCACUUCUGUUAAAGGUCAACCAGGGCGUAGAGGAGGACAGCG; test: isocratic affinity elution from His–Phe–Sepharose; details: 600 mM NaCl, 5 mM MgCl2, 5 mM CaCl2; 50 mM HEPES pH 7.0
[4] = tested on: RNA 8 (RNA, aptamer) GGCAAGUACUCUGACGCAGUGGAAGUUAUGUGUAUGCGGUAGAUAGGUAACGUUCUGUCAUAGGAAGGUACUAUCGUGCGUAGAGGAGGACAGCG; test: isocratic affinity elution from His–Phe–Sepharose; details: 600 mM NaCl, 5 mM MgCl2, 5 mM CaCl2; 50 mM HEPES pH 7.0
[5] = tested on: RNA 44 (RNA, aptamer) GGCAAGUACUCUGACGCUAGGCAGCGGCGAGGGAAGUUGGAGCUUAGACCAGUUAGGAGCUGGAGACCAGGCAGUCGGCGUAGAGGAGGACAGCG; test: affinity column elution; details: 600 mM NaCl, 5 mM MgCl2, 5 mM CaCl2; 50 mM HEPES pH 7.0
[6] = tested on: RNA 35 (RNA, aptamer) GGCAAGUACUCUGACGCGUGGGAAGAUACGUGUAUACGCUAACAUACGGCAAGGUGAGUAGCCGGAAGUAGCAUGUGGCGUAGAGGAGGACAGCG; test: elution from His–Phe–Sepharose by free ligand; details: 600 mM NaCl, 5 mM MgCl2, 5 mM CaCl2; 50 mM HEPES pH 7.0; 1.5 mM dipeptide
[7] = tested on: RNA 13 (RNA, aptamer) GGCAAGUACUCUGACGCCUGAUGUGAUGGCCUUGGUCGAAGCGGGAUCCGACAGCUACUAUAGAGGUGUUGUCGAGGGCGUAGAGGAGGACAGCG; test: elution from His–Phe–Sepharose by free ligand; details: 600 mM NaCl, 5 mM MgCl2, 5 mM CaCl2; 50 mM HEPES pH 7.0; 1.5 mM dipeptide
[8] = tested on: RNA 6 (RNA, aptamer) GGCAAGUACUCUGACGCCGGUGGCGCAGACAGAUUUCCAGUAUGGCACGGACCGGAGAGGGAAGGAUGACAGACGUGGCGUAGAGGAGGACAGCG; test: elution from His–Phe–Sepharose by free ligand; details: 600 mM NaCl, 5 mM MgCl2, 5 mM CaCl2; 50 mM HEPES pH 7.0; 1.5 mM dipeptide
[9] = tested on: RNA 20 (RNA, aptamer) GGCAAGUACUCUGACGCGGAUGGGCCACAACGGAUCAGACGACAGGCAUUCUUUGAAGGAAAGAUCCCAGCAGAGCGGCGUAGAGGAGGACAGCG; test: elution from His–Phe–Sepharose by free ligand; details: 600 mM NaCl, 5 mM MgCl2, 5 mM CaCl2; 50 mM HEPES pH 7.0; 1.5 mM dipeptide
[10] = tested on: RNA 12 (RNA, aptamer) GGCAAGUACUCUGACGCGUGCUGCGGGCCGUUCAUAGUGGACGGGGUAGACAGAGAACCUUAGACCAAGGUAUCGGCGCGUAGAGGAGGACAGCG; test: elution from His–Phe–Sepharose by free ligand; details: 600 mM NaCl, 5 mM MgCl2, 5 mM CaCl2; 50 mM HEPES pH 7.0; 1.5 mM dipeptide
[11] = tested on: RNA 39 (RNA, aptamer) GGCAAGUACUCUGACGCGGAUGGGCCACCAAAGCACCGAAGGGUAGGAGCCACUAACUUGCGGUGAAUGGAAGAGCGGCGUAGAGGAGGACAGCG; test: elution from His–Phe–Sepharose by free ligand; details: 600 mM NaCl, 5 mM MgCl2, 5 mM CaCl2; 50 mM HEPES pH 7.0; 1.5 mM dipeptide
[12] = tested on: RNA 11 (RNA, aptamer) GGCAAGUACUCUGACGCGAGGGUGGAUACGUGUAUGCGGUUACAUCUGUGGUUUCUAAAAGAGCAAGCCGAUGUGGCGUAGAGGAGGACAGCG; test: elution from His–Phe–Sepharose by free ligand; details: 600 mM NaCl, 5 mM MgCl2, 5 mM CaCl2; 50 mM HEPES pH 7.0; 1.5 mM dipeptide
[13] = tested on: RNA 23 (RNA, aptamer) GGCAAGUACUCUGACGCGGAUGGGCCAACGGCGAGCGUCGAAGGAGCUUAGUACCGAAGCAACGCAAGCGUAGAGCGGCGUAGAGGAGGACAGCG; test: elution from His–Phe–Sepharose by free ligand; details: 600 mM NaCl, 5 mM MgCl2, 5 mM CaCl2; 50 mM HEPES pH 7.0; 1.5 mM dipeptide
[14] = tested on: RNA 33 (RNA, aptamer) GGCAAGUACUCUGACGCGCCGAAAUGGGAGGGGUGGCGUUAACCGGCAAAGCUGCACGGGCGAUGAAGAAACGCGGGGCGUAGAGGAGGACAGCG; test: elution from His–Phe–Sepharose by free ligand; details: 600 mM NaCl, 5 mM MgCl2, 5 mM CaCl2; 50 mM HEPES pH 7.0; 1.5 mM dipeptide
[15] = tested on: RNA 24 (RNA, aptamer) GGCAAGUACUCUGACGCCCUGAGAGCGUAAUGUGACGGACAGUCGCACUGGAGGAGGAGGAAGUGAUGCAUCGAUCGGCGUAGAGGAGGACAGCG; test: elution from His–Phe–Sepharose by free ligand; details: 600 mM NaCl, 5 mM MgCl2, 5 mM CaCl2; 50 mM HEPES pH 7.0; 1.5 mM dipeptide
[16] = tested on: RNA 22 (RNA, aptamer) GGCAAGUACUCUGACGCGAAAUGUACAUGGCGUUAAAGUAGACGCAGGAUUAAGUGUGCUGUGGAGUCGAAACGCGGGCGUAGAGGAGGACAGCG; test: elution from His–Phe–Sepharose by free ligand; details: 600 mM NaCl, 5 mM MgCl2, 5 mM CaCl2; 50 mM HEPES pH 7.0; 1.5 mM dipeptide

| Compound | K D [1] | K D [2] | K D [3] | K D [4] | binding [5] | binding [6] | binding [7] | binding [8] | binding [9] | binding [10] | binding [11] | binding [12] | binding [13] | binding [14] | binding [15] | binding [16] |
| --- | --- | --- | --- | --- | --- | --- | --- | --- | --- | --- | --- | --- | --- | --- | --- | --- |
| NCC(=O)N[C@@H](Cc1ccccc1)C(=O)O (H-Gly-Phe-OH) | 31.6 mM | 9.3 mM | > 727 mM | > 34 mM | – | – | – | – | – | – | – | – | – | – | – | – |
| N[C@@H](Cc1ccccc1)C(=O)O | 22 mM | > 227 mM | > 727 mM | > 34 mM | yes | – | – | – | – | – | – | – | – | – | – | – |
| N[C@@H](Cc1cnc[nH]1)C(=O)O | > 119 mM | > 227 mM | > 727 mM | > 34 mM | no | – | – | – | – | – | – | – | – | – | – | – |
| N[C@@H](Cc1c[nH]cn1)C(=O)NCC(=O)O (H-His-Gly-OH) | 10.5 mM | 3.4 mM | 8.2 mM | 5.4 mM | – | – | – | – | – | – | – | – | – | – | – | – |
| N[C@@H](Cc1cnc[nH]1)C(=O)N[C@@H](Cc1ccccc1)C(=O)O (H-His-Phe-OH) | 0.478 ± 0.061 mM | 0.077 ± 0.007 mM | 0.036 ± 0.002 mM | 0.102 ± 0.033 mM | yes | yes | yes | yes | yes | yes | yes | yes | yes | yes | yes | yes |
